Inconclusive results and toxic doses are left out. Rule for the calls: active = survival T/C of 150% or more; inactive = T/C below 125% in these data.
Test system: BDF1 mice, P388 leukemia ip, median survival T/C
Experiment: NCI In Vivo Anticancer Drug Screen. Data for tumor model P388 Leukemia (intraperitoneal) in B6D2F1 (BDF1) mice
Conditions: endpoint: median survival time, higher = longer survival
In short: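 In tumour-bearing mice, survival after compound treatment is set against the vehicle group and given as a quotient.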

[1] = dose: 100.0 mg/kg/injection, schedule: Q01DX009 (ip), vehicle: Klucel (hydroxypropylcellulose) (HPC)
[2] = dose: 200.0 mg/kg/injection, schedule: Q01DX009 (ip), vehicle: Klucel (hydroxypropylcellulose) (HPC)
[3] = dose: 100.0 mg/kg/injection, schedule: Q04DX003 (ip), vehicle: Klucel (hydroxypropylcellulose) (HPC)
[4] = dose: 200.0 mg/kg/injection, schedule: Q04DX003 (ip), vehicle: Klucel (hydroxypropylcellulose) (HPC)
[5] = dose: 400.0 mg/kg/injection, schedule: Q01DX009 (ip), vehicle: Klucel (hydroxypropylcellulose) (HPC)
[6] = dose: 400.0 mg/kg/injection, schedule: Q04DX003 (ip), vehicle: Klucel (hydroxypropylcellulose) (HPC)
[7] = dose: 50.0 mg/kg/injection, schedule: Q01DX009 (ip), vehicle: saline with Tween-80
[8] = dose: 100.0 mg/kg/injection, schedule: Q01DX009 (ip), vehicle: saline with Tween-80
[9] = dose: 25.0 mg/kg/injection, schedule: Q01DX009 (ip), vehicle: saline
[10] = dose: 50.0 mg/kg/injection, schedule: Q01DX009 (ip), vehicle: saline
[11] = dose: 200.0 mg/kg/injection, schedule: Q01DX009 (ip), vehicle: saline with Tween-80
[12] = dose: 100.0 mg/kg/injection, schedule: Q01DX009 (ip), vehicle: saline
[13] = dose: 200.0 mg/kg/injection, schedule: Q01DX009 (ip), vehicle: saline
[14] = dose: 50.0 mg/kg/injection, schedule: Q04DX003 (ip), vehicle: saline

Measured: T/C

BrCc1ccc(CBr)c(Br)c1
inactive: dose: 6.0 mg/kg/injection, schedule: Q01DX009 (ip), vehicle: Klucel (hydroxypropylcellulose) (HPC) 89 % of control | dose: 6.25 mg/kg/injection, schedule: Q04DX003 (ip), vehicle: Klucel (hydroxypropylcellulose) (HPC) 92 % of control | dose: 12.0 mg/kg/injection, schedule: Q01DX009 (ip), vehicle: Klucel (hydroxypropylcellulose) (HPC) 103 % of control | dose: 12.5 mg/kg/injection, schedule: Q04DX003 (ip), vehicle: Klucel (hydroxypropylcellulose) (HPC) 96 % of control | dose: 25.0 mg/kg/injection, schedule: Q01DX009 (ip), vehicle: Klucel (hydroxypropylcellulose) (HPC) 96 % of control | dose: 25.0 mg/kg/injection, schedule: Q04DX003 (ip), vehicle: Klucel (hydroxypropylcellulose) (HPC) 100 % of control

Cc1onc(-c2ccccc2Cl)c1C(=O)Nc1ccccc1CC1c2ccccc2CCN1C (configuration not stated)
inactive: dose: 50.0 mg/kg/injection, schedule: Q01DX009 (ip), vehicle: Klucel (hydroxypropylcellulose) (HPC) 101 % of control | [1] 104 % of control | [2] 95 % of control

[Cl][Ni][Cl].[NH-]CCN1CC1.[NH-]CCN1CC1
inactive: dose: 6.25 mg/kg/injection, schedule: Q01DX001 (ip), vehicle: saline 100 % of control | dose: 12.5 mg/kg/injection, schedule: Q01DX001 (ip), vehicle: saline 100 % of control | dose: 25.0 mg/kg/injection, schedule: Q01DX001 (ip), vehicle: saline 100 % of control

NC(=S)NNC(=O)/C=C/c1ccccc1
inactive: dose: 100.0 mg/kg/injection, schedule: Q01DX001 (ip), vehicle: saline sonified 104 % of control | dose: 200.0 mg/kg/injection, schedule: Q01DX001 (ip), vehicle: saline sonified 100 % of control | dose: 400.0 mg/kg/injection, schedule: Q01DX001 (ip), vehicle: saline sonified 95 % of control

CCC(=O)OCc1ccc(Cl)cc1
inactive: dose: 75.0 mg/kg/injection, schedule: Q04DX003 (ip), vehicle: Klucel (hydroxypropylcellulose) (HPC) 100 % of control | dose: 150.0 mg/kg/injection, schedule: Q04DX003 (ip), vehicle: Klucel (hydroxypropylcellulose) (HPC) 100 % of control | dose: 300.0 mg/kg/injection, schedule: Q04DX003 (ip), vehicle: Klucel (hydroxypropylcellulose) (HPC) 100 % of control

COC1=C(OC)C(=O)C(C/C=C(\C)CC/C=C(\C)CC/C=C(\C)CC/C=C(\C)CC/C=C(\C)CC/C=C(\C)CC/C=C(\C)CC/C=C(\C)CCC=C(C)C)=C(C)C1=O
inactive: dose: 5.0 mg/kg/injection, schedule: Q01DX025 (ip), vehicle: saline with Tween-80 109 % of control | dose: 10.0 mg/kg/injection, schedule: Q01DX025 (ip), vehicle: saline with Tween-80 106 % of control | dose: 20.0 mg/kg/injection, schedule: Q01DX025 (ip), vehicle: saline with Tween-80 104 % of control | dose: 40.0 mg/kg/injection, schedule: Q01DX025 (ip), vehicle: saline with Tween-80 98 % of control

CC(=O)Nc1ccc2c([N+](=O)[O-])cccc2c1-c1c(NC(C)=O)ccc2c([N+](=O)[O-])cccc12
inactive: [1] 110 % of control | [3] 109 % of control | [4] 100 % of control | [5] 95 % of control | [6] 100 % of control

O=C1OP2(c3ccccc3)(OC(=O)c3ccccc32)c2ccccc21
inactive: [7] 91 % of control | [8] 96 % of control

COc1ccc(C2CCc3cc(OC)c(OC)cc3C2=O)cc1OC (configuration not stated)
inactive: dose: 20.0 mg/kg/injection, schedule: Q01DX009 (ip), vehicle: saline with Tween-80 87 % of control | dose: 80.0 mg/kg/injection, schedule: Q01DX009 (ip), vehicle: saline with Tween-80 91 % of control | dose: 120.0 mg/kg/injection, schedule: Q01DX009 (ip), vehicle: saline with Tween-80 87 % of control

CC(=O)CC(C)(C)N
inactive: [9] 95 % of control | [10] 104 % of control

CC[C@H](CC[C@@H](C)[C@H]1CC[C@H]2[C@@H]3CC[C@H]4C[C@@H](O)CC[C@]4(C)[C@H]3CC[C@]12C)C(C)C
inactive: dose: 100.0 mg/kg/injection, schedule: Q04DX003 (ip), vehicle: saline with Tween-80 100 % of control | [11] 95 % of control | dose: 400.0 mg/kg/injection, schedule: Q01DX009 (ip), vehicle: saline with Tween-80 100 % of control | dose: 400.0 mg/kg/injection, schedule: Q04DX003 (ip), vehicle: saline with Tween-80 86 % of control

COc1ccc(/C=C/C2(O)N(C)C(=O)N(C)C(=O)N2C)cc1
inactive: [10] 89 % of control | [12] 99 % of control | [13] 118 % of control

CC1(C)CC2(OC2c2ccccc2)C(C)(O)c2ccccc21 (configuration not stated)
inactive: [1] 95 % of control | [3] 110 % of control | [2] 90 % of control | [4] 105 % of control | [5] 100 % of control | [6] 105 % of control

CCOP(=O)(OCC)OCCCN(CC)CC
inactive: [9] 118 % of control | [10] 114 % of control | [14] 100 % of control | [12] 100 % of control | dose: 100.0 mg/kg/injection, schedule: Q04DX003 (ip), vehicle: saline 107 % of control | [13] 89 % of control | dose: 200.0 mg/kg/injection, schedule: Q04DX003 (ip), vehicle: saline 110 % of control | dose: 300.0 mg/kg/injection, schedule: Q04DX003 (ip), vehicle: saline 105 % of control

COC(=O)/C=C1/C(=O)N(C)c2ccccc21
inactive: [7] 122 % of control | [8] 98 % of control | [11] 104 % of control

O=C(CC(O)(C(F)(F)Cl)C(F)(F)Cl)c1cccs1
inactive: dose: 100.0 mg/kg/injection, schedule: Q01DX001 (ip), vehicle: saline with Tween-80 95 % of control | dose: 200.0 mg/kg/injection, schedule: Q01DX001 (ip), vehicle: saline with Tween-80 100 % of control | dose: 400.0 mg/kg/injection, schedule: Q01DX001 (ip), vehicle: saline with Tween-80 100 % of control

O=C(O)/C=C/c1ccc(-c2cc(C(F)(F)F)cc(C(F)(F)F)c2)o1
inactive: [7] 108 % of control | [8] 90 % of control | [11] 106 % of control

C1CCC2C(C1)NC1CCCCC12 (configuration not stated)
inactive: dose: 12.0 mg/kg/injection, schedule: Q04DX003 (ip), vehicle: saline 109 % of control | dose: 12.5 mg/kg/injection, schedule: Q01DX001 (ip), vehicle: saline sonified 100 % of control | dose: 25.0 mg/kg/injection, schedule: Q01DX001 (ip), vehicle: saline sonified 90 % of control | [9] 112 % of control | dose: 25.0 mg/kg/injection, schedule: Q04DX003 (ip), vehicle: saline 95 % of control | dose: 50.0 mg/kg/injection, schedule: Q01DX001 (ip), vehicle: saline sonified 90 % of control | [10] 104 % of control | [14] 109 % of control
